{"source": "patent US20220313620A1", "about": "“COMPOSITION FOR PREVENTING AND TREATING TAUOPATHIES” (SERVICIO ANDALUZ DE SALUD, priority 2019, published 2022)", "key": {"[1]": {"assay": "Plasma glucose levels after acute oral gavage", "type": "in vivo", "details": "oral 500 mg/kg, adult male Wistar rats, FIG. 3C", "experimental": "Experimental procedures with animals were carried out in strict accordance with the recommendations in the European Communities directive 2010/63/EU and Spanish legislation (Real Decreto 53/2013, BOE 34/11370-11421, 2013) regulating the care and use of laboratory animals. The protocol was approved by the Ethics Committee for Animal Experiments of the University of Malaga. All studies involving animals were reported in accordance with the ARRIVE guidelines for reporting experiments involving animals (Kilkenny, C., Browne, W. J., Cuthill, I. C., Emerson, M. & Altman, D. G. Improving Bioscience Research Reporting: The ARRIVE Guidelines for Reporting Animal Research. PLoS Biol 8, e1000412, https://doi.org/10.1371/journal.pbio.1000412 (2010). All efforts were made to minimize animal suffering and to reduce the number of animals used. The experiments were performed on 4-to-5-week-old male Wistar rats (Crl:Wl; Charles River Laboratories, Barcelona, Spain). The animals were under a standard 12 h light-dark cycle in a room with temperature and humidity control. All the rats were provided with water and commercially available rat standard pellet diet (STD) (3.02 kcal/g with 30 kcal % protein, 55 kcal % carbohydrates and 15 kcal % fat) ad libitum. […]"}, "[2]": {"tested_on": "Mitogen-activated Protein Kinase (MAPK/ERK1/2)", "assay": "Hippocampal MAPK/ERK1/2 (western blot) after 10 days of oral drinking", "type": "in vivo, Wistar rats", "details": "oral by drinking 100 mg/Kg for 10 days, hippocampus, FIG. 10", "experimental": "Animal experimental procedures were carried out in accordance with the European Communities directive 2010/63/EU and Spanish legislation (Real Decreto 53/2013). The protocol was approved by the Research and approved by Ethics Committee for Animal Experiments of the University of Malaga, Spain. In accordance with the ARRIVE guidelines, all efforts were made to minimize animal suffering and to reduce the number of animals used per experimental group. Chronic drinking experiments on Wistar rats were performed on 20 male rats. All adult rats, ageing 2 months (≈300 g of body weight), were provided by Charles River Laboratories (Barcelona, Spain). The animals were housed individually under a standard 12 h light-dark cycle in a room with temperature and humidity control. Water and rat chow pellets were provided ad libitum throughout the course of the present study. […]\nWestern Blot Analysis. […] Bands were quantified by densitometric analysis using ImageJ software (Rasband, WS, ImageJ, US National Institutes of Health, Bethesda, Md., USA). […] The results were expressed as the protein/α-Adaptin ratio or phosphorylated/total protein ratio and normalized to the control group (Y axis represents ‘fold mean of the control values’).\nAll data are expressed as mean±SEM. […]"}}}
{"smiles": "COC1[C@@H](O)[C@@H](O)C(O)[C@H](O)[C@H]1O", "note": "(stereo partly drawn) [DPIN, (1S,2S,4S,5R)-6-methoxycyclohexane-1,2,3,4,5-pentol]", "values": [{"measurement": "glucose levels in plasma", "setting": "[1]", "result": "maintenance"}, {"measurement": "kinase activation and total expression of MAPK/ERK1/2", "setting": "[2]", "result": "No other changes"}]}
